In US8735398B2 (Bristol-Myers Squibb Company, priority 2009, dated 2014):
Like-named read-outs stand apart in the source and are kept apart here.

Test system: HCV 1b genotype
Assay: HCV replicon assay (HCV-neo replicon cells, wild-type)
Format: cell-based, Hepatitis C virus
Settings: HCV 1b genotype replicon
Summary of the method: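 HCV-neo replicon cells (wild-type) and replicon cells carrying NS5A resistance substitutions were treated with compounds; assay per O'Boyle et al. 2005, with luciferase-reporter read-out variants also used.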

[1] = class symbol, read-out: EC50 Range against HCV 1b
[2] = Hepatitis C virus, class symbol, read-out: EC50 Range against HCV 1b

| Structure (SMILES) | EC50 [1] [nM] | EC50 [2] [nM] | also measured |
| --- | --- | --- | --- |
| CC(O)(C(=O)N1C(C(=O)Nc2ccc(-c3cnc(-c4ccc(NC(=O)C5CC6CC6N5C(=O)C(C)(O)c5ccccc5)cc4)o3)cc2)CC2CC21)c1ccccc1 [CB-10, (1S,3S,5S,1′S,3′S,5′S)-N,N′-(1,3-oxazole-2,5-diyldi-4,1-phenylene)bis(2-((2R)-2-hydroxy-2-phenylpropanoyl)-2-azabicyclo[3.1.0]hexane-3-carboxamide)] | < 4.57 | – | – |
| CC(C)n1c(=O)n(CC(=O)N2CCC[C@H]2C(=O)Nc2ccc(-c3cnc(-c4ccc(NC(=O)[C@@H]5CCCN5C(=O)Cn5c(=O)n(C(C)C)c6cc(F)c(F)cc65)cc4)o3)cc2)c2cc(F)c(F)cc21 [Example D-9, (2S,2′S)-N,N′-(4,4′-(oxazole-2,5-diyl)bis(4,1-phenylene))bis(1-(2-(5,6-difluoro-3-isopropyl-2-oxo-2,3-dihydro-1H-benzo[d]imidazol-1-yl)acetyl)pyrrolidine-2-carboxamide)] | 1000 to 10000 | – | EC50 (read-out: EC50 1b): 3330 nM |
| O=C(Nc1ccc(-c2nnc(-c3ccc(NC(=O)[C@@H]4CCCN4C(=O)c4cc(Cl)ccn4)cc3)o2)cc1)[C@@H]1CCCN1C(=O)c1cc(Cl)ccn1 [RK-27, (2S,2′S)-N,N′-(1,3,4-oxadiazole-2,5-diyldi-4,1-phenylene)bis(1-((4-chloro-2-pyridinyl)carbonyl)-2-pyrrolidinecarboxamide)] | – | 100 to 999 | – |
| O=C(Nc1ccc(-c2cnc(-c3ccc(NC(=O)[C@@H]4CCCN4C(=O)C4CCCCN4CC4CCCCC4)cc3)o2)cc1)[C@@H]1CCCN1C(=O)C1CCCCN1CC1CCCCC1 (stereo partly drawn) [Example D-22, (2S,2′S)-N,N′-(1,3-oxazole-2,5-diyldi-4,1-phenylene)bis(1-((1-(cyclohexylmethyl)-2-piperidinyl)carbonyl)-2-pyrrolidinecarboxamide)] | – | 100 to 999 | – |
| CC(C)(C)OC(=O)N1CCCC1(Cc1ccccc1)C(=O)N1CCC[C@H]1C(=O)Nc1ccc(-c2cnc(-c3ccc(NC(=O)[C@@H]4CCCN4C(=O)C4(Cc5ccccc5)CCCN4C(=O)OC(C)(C)C)cc3)o2)cc1 (stereo partly drawn) [Example D-33, di-tert-butyl 2,2′-(1,3-oxazole-2,5-diylbis(4,1-phenylenecarbamoyl(2S)-2,1-pyrrolidinediylcarbonyl))bis(2-benzyl-1-pyrrolidinecarboxylate)] | 1000 to 10000 | – | – |
| O=C(Nc1ccc(-c2cnc(-c3ccc(NC(=O)[C@@H]4C[C@@H](O)CN4C(=O)Cc4ccccn4)cc3)o2)cc1)[C@@H]1C[C@@H](O)CN1C(=O)Cc1ccccn1 [XY-58, (2S,4R,2′S,4′R)-N,N′-(1,3-oxazole-2,5-diyldi-4,1-phenylene)bis(4-hydroxy-1-(2-pyridinylacetyl)-2-pyrrolidinecarboxamide)] | – | – | EC50 (class symbols, read-out: EC50 Range against HCV 1b): 100 to 999 nM |
| COc1cccc2c1C=C(Cl)N(c1ccc(-c3ncc(-c4ccc(NC(=O)[C@@H]5C[C@@H]6C[C@@H]6N5C(=O)c5nc(Cl)cc6c(OC)cccc56)cc4)o3)cc1)C2C(=O)N1[C@H](C(N)=O)C[C@@H]2C[C@@H]21 (stereo partly drawn) [CB-4, (1S,3S,5S,1′S,3′S,5′S)-N,N′-(1,3-oxazole-2,5-diyldi-4,1-phenylene)bis(2-((3-chloro-5-methoxy-1-isoquinolinyl)carbonyl)-2-azabicyclo[3.1.0]hexane-3-carboxamide)] | – | 100 to 999 | – |
| CN(C)[C@@H](C(=O)N1[C@H](C(=O)Nc2ccc(-c3cnc(-c4ccc(NC(=O)[C@@H]5C[C@@H]6C[C@@H]6N5C(=O)[C@@H](c5ccccc5)N(C)C)cc4)o3)cc2)C[C@@H]2C[C@@H]21)c1ccccc1 [CB-9, (1S,3S,5S,1′S,3′S,5′S)-N,N′-(1,3-oxazole-2,5-diyldi-4,1-phenylene)bis(2-((2R)-2-(dimethylamino)-2-phenylacetyl)-2-azabicyclo[3.1.0]hexane-3-carboxamide)] | < 4.57 | – | – |
| CN(C)[C@@H](C(=O)N1CCC[C@H]1C(=O)Nc1ccc(-c2ccc(-c3ccc(NC(=O)[C@@H]4CCCN4C(=O)[C@@H](c4ccccc4)N(C)C)cc3)o2)cc1)c1ccccc1 [JG-63, (2S,2′S)-N,N′-(2,5-furandiyldi-4,1-phenylene)bis(1-((2R)-2-(dimethylamino)-2-phenylacetyl)-2-pyrrolidinecarboxamide)] | – | < 4.57 | – |
